Laboratory results reported in article PMC12466479, “The Supersulfide-Producing Activity of Rat Cystathionine γ-Lyase Is Irreversibly Inactivated by L-CysNO but Not by L-GSNO” (Antioxidants, 2025).

Legend:
[1] = target: T1, Cystathionine γ-lyase (CSE) (Rattus norvegicus, UniProt P18757); set-up: gene Cth
[2] = target: T1, Cystathionine γ-lyase (CSE); assay: TAP-1 assay of HSNO production from L-CysNO with or without […] PLP; assay type: biochemical; set-up: gene Cth; recombinant rat CSE, purified from E. coli
[3] = target: T1, Cystathionine γ-lyase (CSE); set-up: gene Cth; remark: listed apart in the source
[4] = target: T1, Cystathionine γ-lyase (CSE); assay: SSP4 fluorescence assay of Cys-SSH production from cystine after preincubation with L-CysNO; also a substrate (HSNO by TAP-1, pyruvate assay); assay type: biochemical; set-up: gene Cth; recombinant rat CSE expressed in E. coli as GST-CSE, GST tag cleaved

T1 sequence (P18757 whole entry): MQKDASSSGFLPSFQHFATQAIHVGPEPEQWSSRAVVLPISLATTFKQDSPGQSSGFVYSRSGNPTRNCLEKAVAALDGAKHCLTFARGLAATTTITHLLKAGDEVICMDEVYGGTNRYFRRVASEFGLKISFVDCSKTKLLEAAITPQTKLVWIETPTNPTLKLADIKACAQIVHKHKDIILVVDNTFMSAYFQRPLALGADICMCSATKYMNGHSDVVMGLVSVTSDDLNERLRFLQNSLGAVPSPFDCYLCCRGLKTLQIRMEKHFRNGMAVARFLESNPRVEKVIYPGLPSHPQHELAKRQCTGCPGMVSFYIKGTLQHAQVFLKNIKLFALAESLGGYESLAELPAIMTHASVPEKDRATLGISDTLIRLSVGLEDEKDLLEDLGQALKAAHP

## N[C@@H](CSSC[C@H](N)C(=O)O)C(=O)O [cystine]
[1]
  SSP4 fluorescence assay of Cys-SSH formed from 1 mM cystine (β-lyase activity): The Cys-SSH produced by CSE with cystine as the substrate was measured by using SSP4

## Cc1ncc(COP(=O)(O)O)c(C=O)c1O [PLP, pyridoxal 5′-phosphate]
[2]
  TAP-1 assay of HSNO production from L-CysNO with or without 50 μM PLP: The PLP-dependent β-lyase activity of CSE toward L-CysNO—but not D-CysNO—in producing HSNO was evident

## N[C@@H](CCSC[C@H](N)C(=O)O)C(=O)O [cystathionine]
[3]
  DTNB assay of cysteine formed from 1 mM cystathionine (γ-lyase activity): The cysteine produced by CSE from cystathionine was measured by DTNB assay

## N[C@@H](CSN=O)C(=O)O [L-CysNO, L-S-nitrosocysteine]
[4]
  IC50: 10 µM
